Here are results for ten molecules from ChEMBL document CHEMBL4421732, “Use of small molecule inhibitors targeting EYA tyrosine phosphatase” (2017).

Structures are written as SMILES. Calls of active or inactive are those of the source. The rule behind the calls is not given here.

Experiment [1] has as its system Aorta. The experiment in a line: Inhibition of micro-vessel branching in […] mouse aorta cultured in collagen gels assessed as reduction in aortic ring sprouting at 7.5 uM by aortic ring sprouting assay. The experiment is classed as functional, tissue-based.
Experiment [2] relates to Aorta. The experiment in a line: Inhibition of micro-vessel branching in […] mouse aorta cultured in collagen gels assessed as reduction in initial sprouting at 7.5 uM by aortic ring sprouting assay. In kind it is functional, tissue-based.
Experiment [3] relates to Aorta. The experiment in a line: Inhibition of micro-vessel branching in […] mouse aorta cultured in collagen gels assessed as attenuation of branching at 7.5 uM by aortic ring sprouting assay. In kind it is functional, tissue-based.
Experiment [4] has as its system HUVEC. The experiment in a line: Inhibition of cell proliferation of HUVEC incubated for 3 days by WST8 dye based assay relative to control. The experiment is classed as functional, Homo sapiens. The conditions noted are these: for inhibition: Homo sapiens. In general terms: Tetrazolium assays rely on reduction of a dye to a coloured formazan, in cell work by metabolically active cells.

In experiment [5] the target is T1, Protein phosphatase EYA2 (Homo sapiens) (UniProt O00167).
T1 sequence (whole entry): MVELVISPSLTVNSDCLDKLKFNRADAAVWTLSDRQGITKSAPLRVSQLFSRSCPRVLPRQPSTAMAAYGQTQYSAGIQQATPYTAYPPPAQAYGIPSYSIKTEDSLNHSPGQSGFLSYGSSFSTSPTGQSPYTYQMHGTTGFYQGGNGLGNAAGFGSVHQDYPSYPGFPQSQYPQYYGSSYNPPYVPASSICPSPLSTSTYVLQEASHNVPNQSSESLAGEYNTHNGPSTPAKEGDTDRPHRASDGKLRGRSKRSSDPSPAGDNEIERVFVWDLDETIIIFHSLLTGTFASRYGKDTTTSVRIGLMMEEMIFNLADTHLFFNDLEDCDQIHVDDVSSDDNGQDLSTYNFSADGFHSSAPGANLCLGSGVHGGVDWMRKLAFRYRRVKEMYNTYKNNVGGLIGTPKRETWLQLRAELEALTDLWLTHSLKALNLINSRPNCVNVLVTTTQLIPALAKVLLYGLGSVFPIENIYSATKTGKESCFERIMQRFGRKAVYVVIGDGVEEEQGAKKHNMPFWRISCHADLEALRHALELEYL
In words: Inhibition of EYA2 (unknown origin) stably transfected in human MCF10A cells assessed as inhibition of cell migration at 7.5 uM by transwell assay. The experiment is classed as cell-based.

The species named for experiment [6] is Danio rerio. In words: Induction of vasculature defects in 5.25 hpf stage FLK1-GFP transgenic Zebrafish embryos assessed as reduction in intersegmental vessel number and extension measured at 24 hpf stage by fluorescence microscopy. In kind it is functional, organism-based.
The species named for experiment [7] is Danio rerio. The experiment in a line: Induction of vasculature defects in 5.25 hpf stage FLK1-GFP transgenic Zebrafish embryos assessed as reduction of intersegmental vessels at 0.25 uM measured at 24 hpf stage by fluorescence microscopy. In kind it is functional, organism-based.
The species entered for experiment [8] is Danio rerio. In words: Induction of vasculature defects in 20 hpf stage FLK1-GFP transgenic Zebrafish embryos measured at 24 hpf stage by fluorescence microscopy. The experiment is classed as functional, organism-based.
The species named for experiment [9] is Danio rerio. In words: Induction of general morphology changes in 20 hpf stage FLK1-GFP transgenic Zebrafish embryos measured at 24 hpf stage by fluorescence microscopy. In kind it is functional, organism-based.
Experiment [10] has as its target T2, Protein phosphatase EYA3 (Homo sapiens) (UniProt Q99504).
T2 sequence (whole entry): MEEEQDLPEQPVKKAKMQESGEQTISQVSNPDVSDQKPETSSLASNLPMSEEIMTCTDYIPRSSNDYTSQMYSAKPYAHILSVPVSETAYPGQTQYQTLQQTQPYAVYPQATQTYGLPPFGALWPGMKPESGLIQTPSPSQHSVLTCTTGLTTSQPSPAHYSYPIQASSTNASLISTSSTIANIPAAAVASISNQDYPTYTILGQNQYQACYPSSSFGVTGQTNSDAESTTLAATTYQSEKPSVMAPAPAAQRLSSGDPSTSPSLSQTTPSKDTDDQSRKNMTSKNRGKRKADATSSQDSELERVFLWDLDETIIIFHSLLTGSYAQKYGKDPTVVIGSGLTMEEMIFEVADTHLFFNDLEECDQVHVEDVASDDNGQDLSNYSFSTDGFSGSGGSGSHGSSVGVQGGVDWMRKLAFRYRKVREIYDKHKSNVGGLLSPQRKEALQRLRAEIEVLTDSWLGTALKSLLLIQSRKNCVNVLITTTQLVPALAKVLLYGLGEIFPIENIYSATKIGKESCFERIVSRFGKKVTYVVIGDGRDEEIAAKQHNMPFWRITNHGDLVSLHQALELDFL
As to conditions: 3 to 10 uM.
Description: Competitive inhibition of poly-histidine and GST-tagged full length human Eya3 isoform 2 (127 to 573 residues) at 3 to 10 uM using para-nitrophenol phosphate substrate incubated for 30 mins

Experiment [11] deals with T2, Protein phosphatase EYA3 (Homo sapiens). As to conditions: 5 to 10 uM.
Description: Inhibition of poly-histidine and GST-tagged full length human Eya3 isoform 2 (127 to 573 residues) assessed as reduction in Vmax at 5 to 10 uM using para-nitrophenol phosphate substrate incubated for 30 mins
Experiment [12] has the same target. As to conditions: 5 to 10 uM. This is another data set of the same source.
Description: Inhibition of poly-histidine and GST-tagged full length human Eya3 isoform 2 (127 to 573 residues) assessed as reduction in Km at 5 to 10 uM using para-nitrophenol phosphate substrate incubated for 30 mins

Take `CC(O)c1oc2ccccc2c1C(=O)c1cc(Br)c(O)c(Br)c1` (configuration not stated): the inhibition entry in experiment [1], in experiment [2] and in experiment [3] was “Dose-dependent effect” each time.
For `CCc1oc2cc(O)ccc2c1C(=O)c1cc(Br)c(O)c(Br)c1`, in [4], the “inhibition (INH)” value is above 50%. Moreover, the inhibition entry in experiment [1], in [2] and in [3] was “Dose-dependent effect” each time.
For the molecule `Cc1oc2ccccc2c1C(=O)c1cc(I)c(O)c(I)c1`, the inhibition entry in experiment [1], in experiment [2] and in experiment [3] was “Dose-dependent effect” in each case.
Take `CCc1oc2ccccc2c1C(=O)c1cc(Br)c(O)c(Br)c1`: the inhibition entry in [5], in [11] and in [12] was “Active” in each case. The inhibition result in experiment [4] and in [10] was “inactive” each time. In addition, the Activity result in experiment [6] is “Dose-dependent effect”. The outcome in experiment [7] was Active. Also, the outcome in [8] and in [9] was inactive.
For `CCCCc1oc2ccccc2c1C(=O)c1ccc(O)cc1`, in experiment [5], the inhibition entry is “Active”. Moreover, the Activity entry in [6] was “Dose-dependent effect”. Moreover, the result in [7], in [8] and in experiment [9] was inactive.
In the case of `CCc1oc2ccccc2c1C(=O)c1ccc(O)cc1`, in experiment [5], the inhibition result was “Active”. Moreover, the inhibition result in experiment [4] is “inactive”. Also, the Activity result in experiment [6] was “Dose-dependent effect”. Further, the outcome in experiment [7], in experiment [8] and in [9] was inactive.
For `CCc1oc2ccc(O)cc2c1C(=O)c1cc(Br)c(O)c(Br)c1`, the inhibition result in [1], in experiment [2] and in [3] was “Dose-dependent effect” throughout.
As to `CCCCc1oc2ccccc2c1C(=O)c1cc(I)c(O)c(I)c1`, the inhibition result in experiment [1], in experiment [2] and in experiment [3] was “Dose-dependent effect” throughout.
Take `CC(O)CCc1oc2ccccc2c1C(=O)c1cc(I)c(O)c(I)c1` (configuration not stated): the inhibition result in [1], in [2] and in experiment [3] was “inactive” in each case.
For `Cc1oc2ccccc2c1C(=O)c1ccc(O)c(I)c1`, the inhibition result in [1], in experiment [2] and in experiment [3] was “Dose-dependent effect” in each case.
